In article PMC10384011, “m-Terphenylamines, Acting as Selective COX-1 Inhibitors, Block Microglia Inflammatory Response and Exert Neuroprotective Activity” (Molecules, 2023):

How the values were obtained:
BV2 microglia cells = experiment: Nitrite release (Griess reaction) in LPS-treated BV2 microglia; assay type: cell-based; settings: LPS 1 μg/mL, basal = 100
Text: The COX-1 inhibition data prompted us to undertake further work on the activity of compounds 3 in a neuroinflammation situation. Once we had verified that the compounds studied were not toxic per se in microglia BV2 cells (see the data in Table S1), we measured the nitrites released to determine the efficacy of our compounds in reducing microglia activation. Nitric oxide is a potent mediator of the classic activated microglia phenotype (M1); in fact, the lack of nitrite release correlated with an anti-inflammatory microglia (M2) phenotype. Therefore, we evaluated the response of the BV2 microglia cells to a challenge of 1 μg/mL LPS. For this purpose, BV2 microglia cells were incubated with LPS, a well-known agonist of the toll-like receptor 4 (TLR4) that causes a neuroinflammatory response, in combination with increasing concentrations of our COX-1 inhibitors (1, 3, and 10 μM). […] Similar results were observed after 48 h of the LPS treatment.
Cultures were seeded into flasks containing supplemented medium and kept at 37 °C in a humidified atmosphere of 5% CO2 and 95% air. For assays, BV-2 cells were subcultured in 48-well plates at a seeding density of 1 × 10^5 cells per well. Cells were treated with LPS (Sigma-Aldrich, Madrid, Spain) for 24 or 48 h before confluence in RPMI with 1% FBS.
The NO assay was performed using the previously reported protocols. Briefly, 100 μL of culture supernatants were mixed with the same volume of Griess assay regent (1% sulfanilamide (Sigma Aldrich, Madrid, Spain), 0.1% naphthylethylenediamine dihydrochloride, and 2.5% phosphoric acid). Ten minutes later, the 560-nm absorbance was measured.

[1] = tested on: organotypic hippocampal cultures (OHCs); experiment: Cell death (propidium iodide uptake, CA1) in organotypic hippocampal cultures treated with LPS; assay type: cell-based, Sprague-Dawley rats; settings: LPS 1 μg/mL, 24 h
Description: With these promising data in hand, we selected compound 3b for its study in a more complex preparation. In vivo administration of LPS produces a proinflammatory cascade that causes memory deficits, an increase of inflammatory markers, and impairment of hippocampal glutamatergic transmission, contributing to neuronal death. All of these functional changes have been described to take place mainly in the hippocampus region. Thus, we subjected organotypic hippocampal cultures (OHCs) to LPS (1 μg/mL) to assess the protective effect of COX-1 inhibition. This kind of explant allows us to study the microglia-neuron network in a more complex and physiological model of cerebral insult.
OHCs were conducted on 8–10-day-old Sprague-Dawley rats supplied by the animal facilities of Universidad Autónoma de Madrid (Madrid, Spain). Cultures were prepared according to the methods described by Stoppini et al. with some modifications. […]
Cell death was determined in the CA1 region by staining the OHCs with propidium iodide (PI). Thirty minutes before analyzing fluorescence, slices were incubated with PI (1 µg/mL). Fluorescence was measured in an epifluorescence Olympus BX50WI microscope. […] Fluorescence was measured in each slice using ImageJ.

human COX-2 = target: T1, human COX-2 (Homo sapiens, UniProt P35354); experiment: Cyclooxygenase colorimetric inhibitor screening assay, COX-2; assay type: biochemical; settings: human COX-2, colorimetric kit; read-out: hCOX-2; IC50;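 note: peroxidase activity of COX-2 followed colorimetrically through formation of oxidized TMPD at 590 nm, with arachidonic acid as substrate, compounds tested from 0.001 to 50 µM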
T1 construct: purchased Cayman Chemicals 701050
T1 sequence (P35354 18-604): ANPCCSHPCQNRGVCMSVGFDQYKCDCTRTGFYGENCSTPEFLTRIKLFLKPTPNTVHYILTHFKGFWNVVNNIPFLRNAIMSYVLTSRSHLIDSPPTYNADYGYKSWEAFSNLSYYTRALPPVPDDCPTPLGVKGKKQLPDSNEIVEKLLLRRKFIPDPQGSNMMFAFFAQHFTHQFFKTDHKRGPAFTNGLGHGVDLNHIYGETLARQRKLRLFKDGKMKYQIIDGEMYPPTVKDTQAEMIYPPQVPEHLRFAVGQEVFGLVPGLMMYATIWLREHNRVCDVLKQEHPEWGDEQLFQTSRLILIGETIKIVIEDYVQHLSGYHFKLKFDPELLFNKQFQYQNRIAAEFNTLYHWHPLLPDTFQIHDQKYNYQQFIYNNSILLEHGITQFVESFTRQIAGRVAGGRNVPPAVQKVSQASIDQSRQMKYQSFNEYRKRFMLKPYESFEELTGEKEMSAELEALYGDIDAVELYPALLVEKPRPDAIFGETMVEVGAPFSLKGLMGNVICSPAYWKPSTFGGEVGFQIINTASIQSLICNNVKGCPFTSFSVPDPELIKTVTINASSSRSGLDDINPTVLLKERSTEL
Description: Newly synthesized compounds were evaluated for their ability to inhibit ovine COX-1 or human COX-2 enzyme by measuring the extent (%) of enzyme activity inhibition at different concentrations (0.001, 0.01, 0.1, 1, 10, 50 μM). […] The assay kit measures the peroxidase component of COXs that is assayed colorimetrically by monitoring the appearance of oxidized N,N,N′,N′-tetramethyl-p-phenylenediamine (TMPD) a λ = 590 nm. […] Stock solutions of test compounds were dissolved in DMSO.

**Q.** Cc1ccc(-c2cc(N)cc(-c3ccccc3)c2)cc1 [Compound 3b, 4-Methyl-5′-amino-m-terphenyl] was tested. Which “Nitrite Release after 24 h” value (BV2 microglia cells; 1 μM) did it give?
**A.** 123 ± 8%

**Q.** And the “Nitrite Release after 48 h” value (BV2 microglia cells; 1 μM)?
**A.** 140 ± 14%

**Q.** And the “Nitrite Release after 24 h” value (BV2 microglia cells; 3 μM)?
**A.** 100 ± 4 %

**Q.** What about the “Nitrite Release after 48 h” value (BV2 microglia cells; 3 μM) of the same compound?
**A.** 123 ± 10 %

**Q.** What about the “Nitrite Release after 24 h” value (BV2 microglia cells; 10 μM) of the same compound?
**A.** 105 ± 6 %

**Q.** And the “Nitrite Release after 48 h” value (BV2 microglia cells; 10 μM)?
**A.** 128 ± 10 %

**Q.** What about the “Cell death (PI uptake in CA1) induced by LPS” value [1] of the same compound?
**A.** reduced cell death induced by LPS almost to basal levels

**Q.** And the IC50 (human COX-2)?
**A.** > 50 µM
